Assay results reported in patent US20230203081A1, “LINCOSAMIDE ANTIBIOTICS AND USES THEREOF” (President and Fellows of Harvard College, priority 2020, published 2023).
In brackets after ≈: the same amount, converted by molar mass. Read-outs that look alike come from different tables or passages of the source.

Key:
Type in all cases: cell-based
E. coli armA = test: microbe, parasite or virus in culture; settings: Escherichia coli, E. coli armA
How it was run: (§1)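 Per CLSI, MICs by broth microdilution or agar dilution; strains other than streptococci and anaerobes were sub-cultured overnight at 35° C on blood agar, with a final broth inoculum of 5×10^5 CFU/mL.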

E. faecium Line R & VRE = test: MIC (broth microdilution or agar dilution, CLSI); settings: Enterococcus faecium, E. faecium Line R & VRE, read-out: MIC
How it was run: (§2)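 CLSI MIC, broth microdilution or agar dilution; compound 128-0.06 μg/mL, 2.5% DMSO final; triplicate. Anaerobes (e.g. clostridia) and streptococci run by specialized procedures. Other strains: overnight 35° C on blood agar, CaMHB, 0.5 McFarland, inoculum 5×10^5 CFU/mL.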

E. faecium VRE = test: MIC (broth microdilution or agar dilution, CLSI); settings: Enterococcus faecium; E. faecium VRE; read-out: MIC
How it was run: as §2

P. aeruginosa ATCC 27853 = test: MIC (broth microdilution or agar dilution, CLSI); settings: Pseudomonas aeruginosa, ATCC27853; P. aeruginosa ATCC 27853; read-out: MIC
How it was run: as §2

P. aeruginosa ΔAmex OprM = test: MIC (broth microdilution or agar dilution, CLSI); settings: Pseudomonas aeruginosa
How it was run: as §2

S. aureus MRSA = test: MIC (broth microdilution or agar dilution, CLSI); settings: Staphylococcus aureus
How it was run: as §2

A. baumannii ATCC 19606 = test: MIC (broth microdilution or agar dilution, CLSI); settings: Acinetobacter baumannii, ATCC19606; A. baumannii ATCC 19606; read-out: MIC
How it was run: as §1

[1] = test system: E. faecalis MMX 847; cErmB; test: MIC (broth microdilution or agar dilution, CLSI); settings: E. faecalis MMX 847, cErmB
How it was run: as §1

S. aureus ATCC 700699 = test: MIC (broth microdilution or agar dilution, CLSI); settings: Staphylococcus aureus, ATCC700699; S. aureus ATCC 700699; read-out: MIC
How it was run: as §1

[2] = test system: S. aureus ATCC BAA-1707 (MRSA); test: MIC (broth microdilution or agar dilution, CLSI); settings: Staphylococcus aureus; S. aureus ATCC BAA-1707 (MRSA); read-out: MIC
How it was run: as §1

S. aureus hVISA = test: MIC (broth microdilution or agar dilution, CLSI); settings: Staphylococcus aureus; S. aureus hVISA; read-out: MIC
How it was run: as §1

S. pneumoniae ATCC 6303 = test: MIC (broth microdilution or agar dilution, CLSI); settings: Streptococcus pneumoniae, ATCC6303; S. pneumoniae ATCC 6303; read-out: MIC
How it was run: as §1

[3] = test system: S. pneumoniae MMX 3028 cErmB; test: MIC (broth microdilution or agar dilution, CLSI); settings: S. pneumoniae MMX 3028 cErmB
How it was run: as §1

[4] = test system: S. pneumoniae MMX 3031 cMefA; test: MIC (broth microdilution or agar dilution, CLSI); settings: S. pneumoniae MMX 3031 cMefA
How it was run: as §1

[5] = test system: S. pyogenes MMX 946; cErmB; test: MIC (broth microdilution or agar dilution, CLSI); settings: S. pyogenes MMX 946, cErmB
How it was run: as §1

E. faecalis VRE [6] = test: MIC (CLSI), first E. faecalis VRE line of Table 4; settings: Enterococcus faecalis; E. faecalis VRE (Table 4, first VRE line); read-out: MIC
Method: (§3) Minimum inhibitory concentrations (MICs) were determined by broth microdilution method or agar dilution method following the Clinical and Laboratory Standards Institute guidelines. Standard bacterial strains were obtained from American Type Culture Collection (ATCC). Other bacterial strains were obtained from hospitals and commercial sources, so noted in Table 11. Before the start of the MIC experiment, standard and test compound stock solutions were prepared in dimethyl sulfoxide (DMSO, Aldrich D2650) at a stock concentration of 5,120 μg/mL. The compound concentration range typically employed for each experiment was 128-0.06 μg/mL (2.5% final DMSO concentration). Clindamycin was used as a comparator in all experiments and each experiment was performed in triplicate. Specialized procedures were employed for streptococcal and anaerobic strains. All other bacterial strains were sub-cultured on blood agar plates (tryptic soy agar with 5% sheep blood, Hardy Diagnostics) and incubated overnight at 35° C. Organisms were suspended in cation-adjusted Mueller-Hinton broth (CaMHB, BD 212322) and optical density was adjusted to 0.5 McFarland standard. Suspensions were further diluted to obtain a final inoculum of 5×10^5 CFU/mL for broth microdilution experiments.

E. faecalis VRE [7] = test: MIC (CLSI), second E. faecalis VRE line of Table 4; settings: Enterococcus faecalis; E. faecalis VRE (Table 4, second VRE line); read-out: MIC
Method: as §3

E. faecalis VRE [8] = test: MIC (CLSI), third E. faecalis VRE line of Table 4; settings: Enterococcus faecalis; E. faecalis VRE (Table 4, third VRE line); read-out: MIC
Method: as §3

S. aureus BAA 977 iErmA = test: microbe, parasite or virus in culture; settings: S. aureus BAA 977 iErmA
How it was run: as §1

S. aureus MP-549 msrA = test: microbe, parasite or virus in culture; settings: S. aureus MP-549 msrA
How it was run: as §1

B. fragilis ATCC 25285 = test: MIC (broth microdilution or agar dilution, CLSI); settings: B. fragilis ATCC 25285
How it was run: as §2

C. difficile ATCC 700057 = test: MIC (broth microdilution or agar dilution, CLSI); settings: C. difficile ATCC 700057
How it was run: as §2

C. scindens ATCC 35704 = test: MIC (broth microdilution or agar dilution, CLSI); settings: C. scindens ATCC 35704
How it was run: as §2

[9] = test system: E. coli MP-74 LptD mutant; test: MIC (broth microdilution or agar dilution, CLSI); settings: E. coli MP-74 LptD mutant
How it was run: as §2

E. coli ATCC 25922 = test: MIC (broth microdilution or agar dilution, CLSI); settings: E. coli ATCC 25922
How it was run: as §1

E. coli MP-9 ΔTolC = test: MIC (broth microdilution or agar dilution, CLSI); settings: E. coli MP-9 ΔTolC
How it was run: as §1

E. faecalis ATCC 29212 = test: MIC (broth microdilution or agar dilution, CLSI); settings: E. faecalis ATCC 29212
How it was run: as §1

H. influenzae ATCC 49247 = test: MIC (broth microdilution or agar dilution, CLSI); settings: H. influenzae ATCC 49247
How it was run: as §1

K. pneumoniae ATCC 10031 = test: MIC (broth microdilution or agar dilution, CLSI); settings: K. pneumoniae ATCC 10031
How it was run: as §1

S. aureus ATCC 29213 = test: MIC (broth microdilution or agar dilution, CLSI); settings: S. aureus ATCC 29213
How it was run: as §1

S. aureus MMX 3035 cErmA = test: MIC (broth microdilution or agar dilution, CLSI); settings: S. aureus MMX 3035 cErmA
How it was run: as §1

S. pneumoniae ATCC 49619 = test: MIC (broth microdilution or agar dilution, CLSI); settings: S. pneumoniae ATCC 49619
How it was run: as §1

S. pyogenes ATCC 19615 = test: MIC (broth microdilution or agar dilution, CLSI); settings: S. pyogenes ATCC 19615
How it was run: as §1

## CCC[C@@H]1CCO[C@@H]2[C@H](CN[C@@H]2C(=O)N[C@H]([C@H](C)Cl)[C@H]2OC(SC)[C@H](O)[C@H](O)C2O)C1 (stereo partly shown) [FSA-10-09-051]
E. coli armA
  MIC: 8 µg/mL (≈ 16.6 µM)
E. faecium Line R & VRE
  MIC: 8 µg/mL (≈ 16.6 µM)
E. faecium VRE
  MIC: 4 µg/mL (≈ 8.32 µM)
P. aeruginosa ATCC 27853
  MIC: > 128 µg/mL
P. aeruginosa ΔAmex OprM
  MIC: 2 µg/mL (≈ 4.16 µM)
S. aureus MRSA
  MIC: 0.06 µg/mL (≈ 0.125 µM)
A. baumannii ATCC 19606
  MIC: 8 µg/mL (≈ 16.6 µM)
[1]; Enterococcus faecalis, read-out: MIC
  MIC: 4 µg/mL (≈ 8.32 µM)
S. aureus ATCC 700699
  MIC: 4 µg/mL (≈ 8.32 µM)
[2]
  MIC: 0.06 µg/mL (≈ 0.125 µM)
S. aureus hVISA
  MIC: 8 µg/mL (≈ 16.6 µM)
S. pneumoniae ATCC 6303
  MIC: 0.06 µg/mL (≈ 0.125 µM)
[3]; Streptococcus pneumoniae, MMX3028CERMB, read-out: MIC
  MIC: 0.25 µg/mL (≈ 0.52 µM)
[4]; Streptococcus pneumoniae, MMX3031CMEFA, read-out: MIC
  MIC: 0.06 µg/mL (≈ 0.125 µM)
[5]; Streptococcus pyogenes, read-out: MIC
  MIC: 0.5 µg/mL (≈ 1.04 µM)
E. faecalis VRE [6]
  MIC: 8 µg/mL (≈ 16.6 µM)
E. faecalis VRE [7]
  MIC: 8 µg/mL (≈ 16.6 µM)
E. faecalis VRE [8]
  MIC: 2 µg/mL (≈ 4.16 µM)

## CSC1O[C@H]([C@H](NC(=O)[C@H]2NC[C@@H]3C[C@@H](C(C)C)CCO[C@H]32)[C@H](C)Cl)C(O)[C@@H](O)[C@H]1O (stereo partly shown) [FSA-512078a]
S. aureus BAA 977 iErmA
  MIC: 0.06 µg/mL (≈ 0.125 µM)
S. aureus MP-549 msrA
  MIC: 0.06 µg/mL (≈ 0.125 µM)
B. fragilis ATCC 25285
  MIC: 1 µg/mL (≈ 2.08 µM)
C. difficile ATCC 700057
  MIC: 1 µg/mL (≈ 2.08 µM)
C. scindens ATCC 35704
  MIC: 0.25 µg/mL (≈ 0.52 µM)
[9]
  MIC: 4 µg/mL (≈ 8.32 µM)
E. coli ATCC 25922
  MIC: 32 µg/mL (≈ 66.5 µM)
E. coli MP-9 ΔTolC
  MIC: 2 µg/mL (≈ 4.16 µM)
E. faecalis ATCC 29212
  MIC: 0.25 µg/mL (≈ 0.52 µM)
[1]
  MIC: 32 µg/mL (≈ 66.5 µM)
H. influenzae ATCC 49247
  MIC: 8 µg/mL (≈ 16.6 µM)
K. pneumoniae ATCC 10031
  MIC: 1 µg/mL (≈ 2.08 µM)
S. aureus ATCC 29213
  MIC: 0.06 µg/mL (≈ 0.125 µM)
S. aureus MMX 3035 cErmA
  MIC: 32 µg/mL (≈ 66.5 µM)
S. pneumoniae ATCC 49619
  MIC: 0.03 µg/mL (≈ 0.0624 µM)
[3]
  MIC: 8 µg/mL (≈ 16.6 µM)
[4]
  MIC: 0.03 µg/mL (≈ 0.0624 µM)
S. pyogenes ATCC 19615
  MIC: 0.02 µg/mL (≈ 0.0416 µM)
[5]
  MIC: 8 µg/mL (≈ 16.6 µM)
